Data taken from US9463256B2, “Pretargeting kit, method and agents used therein” (KONINKLIJKE PHILIPS N.V., priority 2010, dated 2016).

How the values were obtained:
[1] = Second order kinetic constants of the reactions between CC49-TCO constructs and ^177Lu-28; type: physicochemical; conditions: for Second order kinetic constant, PEG10 Spacer / Second order kinetic constant, No Spacer: TCO conjugated to CC49, reaction with ^177Lu-28 in PBS, pH 7.4 at 37° C.; for Second order kinetic constant: new TCOs conjugated to CC49, reaction with ^177Lu-28, procedures of Example 5
Procedure: Typically, 1 mg CC49 (5 mg/mL solution in PBS) was modified with 0.6 molar (for kinetic measurements) or 10 molar eq. (for in vivo studies) of TCO-NHS constructs in a total volume of 250 μL PBS. The pH was adjusted to 9 with 1 M sodium carbonate buffer. The reactions were carried out under agitation for 30 min at RT in the dark. Subsequently, the TCO-modified mAbs were extensively washed with PBS using Amicon Ultra-15 centrifugal devices. The numbers of TCO groups per antibody were determined with a tetrazine titration, outlined below.
Tetrazine-DOTA 28 was radiolabeled with carrier-added ^177Lu. mAb (25 μg) modified with ca. 0.6 molar eq. TCO was reacted with 3 molar eq. of ^177Lu-28 (0.5 nM). mAb (25 μg) modified with ca. 10 molar eq. TCO was reacted with 15 molar eq. of ^177Lu-28 (2.5 nM). The reactions were carried out in 50 μL PBS pH 7.4 at 37° C. for 10 min. The reaction mixtures were analyzed by SDS-PAGE and phosphor imager and the reaction yields were determined from the radioactivity in the bands corresponding to the mAb. The counts were quantified with AIDA Image Analyzer software (Raytest).
Tetrazine-DOTA 28 was radiolabeled with carrier-added ^177Lu at a specific activity of 3 MBq/μg. ^177Lu-28 (33 nM) was reacted with increasing concentrations of CC49 modified with 1 eq. of TCO (0.33, 1, and 1.67 μM) in 200 μL PBS, pH 7.4 at 37° C. for 5 min. At selected times (15, 30, 45, 60, 90, 120, 180, and 300 sec) a 20 μL sample was withdrawn and quenched with tetrazine 6 (FIG. 5; described in Rossin et al. Angew Chem Int Ed 2010, 49, 3375) (1.5 μL, 5 mg/mL in DMF). Aliquots of each mixture were analyzed by SDS-PAGE and phosphor imager and the cycloaddition yields were determined from the radioactivity in the bands corresponding to the mAb. The counts were quantified with AIDA Image Analyzer software (Raytest).
The newly synthesized TCO constructs were evaluated with respect to their reactivity towards tetrazine 28. The procedures are described in Example 5.

[2] = system: LS174T tumor model; assay: Biodistribution experiments in tumor bearing mice pretargeted with CC49-TCO constructs; type: in vivo, Nude female Balb/C mice; conditions: for ^177Lu-tetrazine in Blood / ^177Lu-tetrazine in Bone / ^177Lu-tetrazine in Brain / ^177Lu-tetrazine in Heart / ^177Lu-tetrazine in Kidney / ^177Lu-tetrazine in Liver / ^177Lu-tetrazine in Lung / ^177Lu-tetrazine in Muscle / ^177Lu-tetrazine in Spleen / ^177Lu-tetrazine in Tumor: 3 h after injection
Procedure: (§1) LS174T tumor model. The human colon cancer cell line LS174T was obtained from the ATCC and maintained in Eagle's minimal essential medium (Sigma) supplemented with 10% heat inactivated fetal calf serum (Gibco), penicillin (100 U/mL), streptomycin (100 μg/mL) and 2 mM Glutamax. Nude female Balb/C mice (20-25 g body weight, Charles River Laboratories) were inoculated subcutaneously with 5×10^6 cells in 100 μL sterile PBS.
Dual isotope biodistribution experiments were performed by injecting tumor bearing mice (n=3) intravenously with ^125I-labeled CC49-TCO constructs with and without PEG10 spacer (100 μg/100 μL per mouse, ca. […] 0.8 MBq). Three hours after tetrazine administration, the animals were anesthetized with isoflurane and sacrificed by cervical dislocation. Blood was withdrawn by heart puncture and organs and tissues of interest were harvested, blotted dry and weighed. The radioactivity of the samples was measured in a γ-counter along with standards to determine the % ID/gram. The energy windows were set to 10-80 keV and 100-510 keV for ^125I and ^111In, respectively.

[3] = system: LS174T tumor model; assay: Biodistribution of ^177Lu-tetrazine 28 in tumor bearing mice pretargeted with CC49-TCO 44b; type: in vivo, Nude female Balb/C mice; conditions: 3 h after injection, 50 h after ^125I-CC49-TCO-44b, two doses of clearing agent
Procedure: as §1
Tumor-bearing mice (see Methods; 100 mm^3 tumor size; n=4) were injected with ^125I-CC49 functionalized with 7.5 TCO 44b groups (100 μg/mouse, ca. 0.2 MBq). Thirty and 48 hours post-mAb injection the mice received one dose of clearing agent (galactose-MSA-tetrazine, 160 μg/dose) followed 2 h later by ^177Lu-tetrazine 28 (10 eq. with respect to the mAb, ca. 0.5 MBq). Three hours post-tetrazine injection the mice were anesthetized and sacrificed by cervical dislocation, blood was withdrawn by heart puncture, organs and tissues of interest were harvested and blotted dry. All collected samples were weighed and added with 1 mL PBS. The sample radioactivity was measured in a gamma-counter with a dual-isotope protocol (10-80 keV window for ^125I and 155-380 keV window for ^177Lu) along with standards to determine the percent injected dose per gram tissue (% ID/g).

[4] = 1 day pretargeting with CC49-23a
[5] = 4 days pretargeting with CC49-23a

## O=C(CCOCCOCCOCCOCCOCCOCCOCCOCCOCCOCCOCCOCCNC(=O)c1ccc(COC2CC/C=C/CCC2)cc1)ON1C(=O)CCC1=O (centres unmarked) [23b, (E-minor)-2,5-Dioxopyrrolidin-1-yl 1-(4-((cyclooct-4-en-1-yloxy)methyl)phenyl)-1-oxo-5,8,11,14,17,20,23,26,29,32,35,38-dodecaoxa-2-azahentetracontan-41-oate]
[1]
  Second order kinetic constant, PEG10 Spacer: (23b) 156400 ± 3100 M^−1s^−1

## O=C(COC1CC/C=C/CCC1)ON1C(=O)CCC1=O (single isomer, unassigned) [44b, (E-Minor)-2,5-dioxopyrrolidin-1-yl 2-(cyclooct-4-en-1-yloxy)acetate]
[1]
  Second order kinetic constant: 134800 ± 997 M⁻¹ s⁻¹

## O=C(ON1C(=O)CCC1=O)c1ccc(OC2CC/C=C/CCC2)cc1 (single isomer, unassigned) [52a, (E-Major)-2,5-dioxopyrrolidin-1-yl 4-(cyclooct-4-en-1-yloxy)benzoate]
[1]
  Second order kinetic constant: 20930 ± 3735 M⁻¹ s⁻¹

## O=C(COC1CC/C=C/CCC1)ON1C(=O)CCC1=O (single isomer, unassigned) [44a, (E-Major)-2,5-dioxopyrrolidin-1-yl 2-(cyclooct-4-en-1-yloxy)acetate]
[1]
  Second order kinetic constant: 20640 ± 485 M⁻¹ s⁻¹

## CC1(CC(=O)ON2C(=O)CCC2=O)CC/C=C/CCC1 (centres unmarked) [compound 58, (E-Major,minor)-2,5-Dioxopyrrolidin-1-yl 2-(1-methylcyclooct-4-en-1-yl)acetate]
[1]
  Second order kinetic constant: 323500 ± 43320 M⁻¹ s⁻¹

## O=C(ON1C(=O)CCC1=O)c1ccc(OC2CC/C=C/CCC2)cc1 (single isomer, unassigned) [52b, (E-Minor)-2,5-dioxopyrrolidin-1-yl 4-(cyclooct-4-en-1-yloxy)benzoate]
[1]
  Second order kinetic constant: 333300 ± 625 M⁻¹ s⁻¹

## CC(C)(OC1CC/C=C/CCC1)C(=O)ON1C(=O)CCC1=O (single isomer, unassigned) [49a, (E-Major)-2,5-dioxopyrrolidin-1-yl 2-(cyclooct-4-en-1-yloxy)-2-methylpropanoate]
[1]
  Second order kinetic constant: 25080 ± 3865 M⁻¹ s⁻¹

## O=C(Nc1ccc(C(=O)ON2C(=O)CCC2=O)cc1)OC1CC/C=C/CCC1 (centres unmarked) [14b, (E-minor)-2,5-dioxopyrrolidin-1-yl 4-(((cyclooct-4-en-1-yloxy)carbonyl)amino)benzoate]
[1]
  Second order kinetic constant, No Spacer: (14b) 66550 ± 8800 M^−1s^−1

## O=C(CCOCCOCCOCCOCCOCCOCCOCCOCCOCCOCCOCCOCCNC(=O)c1ccc(NC(=O)OC2CC/C=C/CCC2)cc1)ON1C(=O)CCC1=O (centres unmarked) [27a, (E-major)-2,5-dioxopyrrolidin-1-yl 1-(4-(((cyclooct-4-en-1-yloxy)carbonyl)amino)phenyl)-1-oxo-5,8,11,14,17,20,23,26,29,32,35,38-dodecaoxa-2-azahentetracontan-41-oate]
[1]
  Second order kinetic constant, PEG10 Spacer: (27a) 11030 ± 250 M^−1s^−1

## O=C([O-])CN1CCN(CC(=O)[O-])CCN(CC(=O)NCCOCCOCCOCCOCCOCCOCCOCCOCCOCCOCCOCCNC(=O)CCCC(=O)Nc2ccc(-c3nnc(-c4ccccn4)nn3)nc2)CCN(CC(=O)[O-])CC1.[177Lu+3] [^177Lu-tetrazine 28]
[2]; [4]
  ^177Lu-tetrazine in Blood: 1.06 ± 0.34 % ID/gram
  ^177Lu-tetrazine in Bone: 0.11 ± 0.02 % ID/gram
  ^177Lu-tetrazine in Brain: 0.03 ± 0.02 % ID/gram
  ^177Lu-tetrazine in Heart: 0.20 ± 0.02 % ID/gram
  ^177Lu-tetrazine in Kidney: 1.73 ± 0.31 % ID/gram
  ^177Lu-tetrazine in Liver: 0.61 ± 0.15 % ID/gram
  ^177Lu-tetrazine in Lung: 0.32 ± 0.03 % ID/gram
  ^177Lu-tetrazine in Muscle: 0.06 ± 0.03 % ID/gram
  ^177Lu-tetrazine in Spleen: 0.30 ± 0.09 % ID/gram
  ^177Lu-tetrazine in Tumor: 3.09 ± 0.01 % ID/gram
[2]; 1 day pretargeting with CC49-23a, listed as 177Lu-tetrazine
  ^177Lu-tetrazine in Tumor: 3.09±0.01 % ID/gram
[2]; [5]
  ^177Lu-tetrazine in Blood: 0.04 ± 0.01 % ID/gram
  ^177Lu-tetrazine in Bone: 0.06 ± 0.01 % ID/gram
  ^177Lu-tetrazine in Brain: 0.01 ± 0.00 % ID/gram
  ^177Lu-tetrazine in Heart: 0.04 ± 0.00 % ID/gram
  ^177Lu-tetrazine in Kidney: 1.73 ± 0.22 % ID/gram
  ^177Lu-tetrazine in Liver: 0.31 ± 0.03 % ID/gram
  ^177Lu-tetrazine in Lung: 0.13 ± 0.05 % ID/gram
  ^177Lu-tetrazine in Muscle: 0.02 ± 0.01 % ID/gram
  ^177Lu-tetrazine in Spleen: 0.20 ± 0.00 % ID/gram
  ^177Lu-tetrazine in Tumor: 0.86 ± 0.39 % ID/gram
[2]; 4 days pretargeting with CC49-23a, listed as 177Lu-tetrazine
  ^177Lu-tetrazine in Tumor: 0.86±0.39 % ID/gram
[2]; ^177Lu-tetrazine administered 4 days after the mAb CC49-23a
  tumor-to-blood ratio (T/B): 21.3±4.0
[2]; ^177Lu-tetrazine, mice pre-treated with CC49-23a 24 h before injection of the tetrazine
  tumor-to-blood ratio (T/B): 3.1±1.0
[3]
  Tumor/Blood ratio, ^177Lu-tetrazine: 304 ± 80
  Tumor/Bone ratio, ^177Lu-tetrazine: 142 ± 59
  Tumor/Brain ratio, ^177Lu-tetrazine: 1674 ± 243
  Tumor/Heart ratio, ^177Lu-tetrazine: 187 ± 20
  Tumor/Kidney ratio, ^177Lu-tetrazine: 6 ± 2
  Tumor/Liver ratio, ^177Lu-tetrazine: 50 ± 10
  Tumor/Lung ratio, ^177Lu-tetrazine: 39 ± 8
  Tumor/Muscle ratio, ^177Lu-tetrazine: 328 ± 96
  Tumor/Spleen ratio, ^177Lu-tetrazine: 108 ± 22
  ^177Lu-tetrazine in Blood: 0.03 ± 0.00 % ID/gram
  ^177Lu-tetrazine in Bone: 0.08 ± 0.04 % ID/gram
  ^177Lu-tetrazine in Brain: 0.01 ± 0.00 % ID/gram
  ^177Lu-tetrazine in Heart: 0.05 ± 0.01 % ID/gram
  ^177Lu-tetrazine in Kidney: 1.50 ± 0.24 % ID/gram
  ^177Lu-tetrazine in Liver: 0.19 ± 0.02 % ID/gram
  ^177Lu-tetrazine in Lung: 0.24 ± 0.02 % ID/gram
  ^177Lu-tetrazine in Muscle: 0.03 ± 0.00 % ID/gram
  ^177Lu-tetrazine in Spleen: 0.09 ± 0.01 % ID/gram
  ^177Lu-tetrazine in Tumor: 9.25 ± 2.16 % ID/gram

## CC(C)(OC1CC/C=C/CCC1)C(=O)ON1C(=O)CCC1=O (single isomer, unassigned) [49b, (E-Minor)-2,5-dioxopyrrolidin-1-yl 2-(cyclooct-4-en-1-yloxy)-2-methylpropanoate]
[1]
  Second order kinetic constant: 148500 ± 12040 M⁻¹ s⁻¹

## O=C(ON1C(=O)CCC1=O)C(OC1CC/C=C/CCC1)c1ccccc1 (single isomer, unassigned) [46a, (E-Major)-2,5-dioxopyrrolidin-1-yl 2-(cyclooct-4-en-1-yloxy)-2-phenyl acetate]
[1]
  Second order kinetic constant: 28630 ± 1590 M⁻¹ s⁻¹

## O=C(Nc1ccc(C(=O)ON2C(=O)CCC2=O)cc1)OC1CC/C=C/CCC1 (centres unmarked) [14a, (E-major)-2,5-dioxopyrrolidin-1-yl 4-(((cyclooct-4-en-1-yloxy)carbonyl)amino)benzoate]
[1]
  Second order kinetic constant, No Spacer: (14a) 11350 ± 550 M^−1s^−1

## O=C(ON1C(=O)CCC1=O)C(OC1CC/C=C/CCC1)c1ccccc1 (single isomer, unassigned) [46b, (E-Minor)-2,5-dioxopyrrolidin-1-yl 2-(cyclooct-4-en-1-yloxy)-2-phenylacetate]
[1]
  Second order kinetic constant: 163200 ± 2871 M⁻¹ s⁻¹
